Measured values reported in patent US9651554B2, “Molecular diagnostic methods for predicting brain metastasis of breast cancer” (The Methodist Hospital Research Institute, priority 2010, dated 2017).

Legend:
231-BR-vector cells = experiment: Brain metastasis xenograft, 231-BR-vector model: metastases counted in H&E-stained brain sections; conditions: for large metastases # / Micro metastases #: 231-BR-vector model; for large metastases #: >50 μm^2; for Micro metastases #: ≦50 μm^2
Source text: Treatment started 3 days after cell injection.
Brain sections (10 μm thick) were serially sectioned.
Mice received 28 days treatment, and all mice were sacrificed, and brains were harvested for ex vivo whole-brain fluorescent imaging of EGFP-positive brain metastases.

[1] = reported (Porkka et al., 2008); cited from earlier work
231-BR-HER2 cells = experiment: Brain metastasis xenograft, 231-BR-HER2 model: metastases counted in H&E-stained brain sections; conditions: for fewer large metastases than vehicle / fewer micrometastases than vehicle: 231-BR-HER2 cells, p<0.05; for large metastases # / Micro metastases #: 231-BR-HER2 model; for large metastases #: >50 μm^2; for Micro metastases #: ≦50 μm^2
in vivo = conditions: BALB/c nude, mouse, po
Protocol: Blood and whole brain of the mice were harvested 6 hours after the last treatment. Plasma was isolated from blood by centrifugation at 3000 rpm for 10 min at 4° C. Half of each brain was flash frozen using liquid nitrogen. All plasma and brain samples were stored at −80° C. until analysis by HPLC-MS/MS.
The separation was performed by injecting 10 μL of the sample on Acquity HPLC BEH C18 column (50×2.1 mm I.D., 1.7 μm, Waters, Milford, Mass., USA). […] The flow rate was 0.45 mL/min using a column temperature of 45° C.
The blood and whole brain of the mice were harvested six hours after the last treatment and the drug concentrations were measured by HPLC-MS/MS.

[2] = 25 mg/kg once daily oral 28 days
[3] = 50 mg/kg once daily oral 28 days
[4] = 40 mg/kg once daily oral 28 days
[5] = 80 mg/kg once daily oral 28 days

Cc1nc(Nc2ncc(C(=O)Nc3c(C)cccc3Cl)s2)cc(N2CCN(CCO)CC2)n1 [Dasatinib]
fewer micrometastases than vehicle (231-BR-vector cells; 231-BR-vector cells, 25 or 50 mg/kg body weight, p<0.05): 33.8-54.4%
fewer large metastases than vehicle (231-BR-vector cells; 231-BR-vector cells, 25 or 50 mg/kg, p<0.05): 41.9-49.3%
large metastases # (231-BR-vector cells; [2]): 8.6 ± 1.5
Micro metastases # (231-BR-vector cells; [2]): 144.6 ± 12.5
large metastases # (231-BR-vector cells; [3]): 7.5 ± 1.3
Micro metastases # (231-BR-vector cells; [3]): 99.5 ± 10.3
BBB crossing [1]: able to cross the BBB
fewer large metastases than vehicle (231-BR-HER2 cells; 25 or 50 mg/kg body weight): 38.1-56.9%
fewer micrometastases than vehicle (231-BR-HER2 cells; 25 or 50 mg/kg body weight): 40.2-61.4%
large metastases # (231-BR-HER2 cells; [2]): 12.5 ± 1.8
Micro metastases # (231-BR-HER2 cells; [2]): 175.7 ± 27.8
large metastases # (231-BR-HER2 cells; [3]): 8.7 ± 1.6
Micro metastases # (231-BR-HER2 cells; [3]): 113.2 ± 23.8
Kp at 336 h (in vivo): 0.06 to 0.12

CCN(CC)CCNC(=O)c1c(C)[nH]c(/C=C2\C(=O)Nc3ccc(F)cc32)c1C [Sunitinib]
fewer large metastasis than vehicle (231-BR-vector cells; 231-BR-vector cells, 80 mg/kg body weight, p<0.05): 31%
fewer micrometastases than vehicle (231-BR-vector cells; 231-BR-vector cells, 40 or 80 mg/kg body weight, p<0.05): 28.5-31.3%
large metastases # (231-BR-vector cells; [4]): 11.8 ± 2.0
large metastases # (231-BR-vector cells; [5]): 10.2 ± 1.3
Micro metastases # (231-BR-vector cells; [5]): 150.2 ± 22
fewer large metastases than vehicle (231-BR-HER2 cells; 40 or 80 mg/kg body weight): 22.7-24.8%
fewer micrometastases than vehicle (231-BR-HER2 cells; 40 or 80 mg/kg body weight): 22.3-31.9%
Micro metastases # (231-BR-HER2 cells; [4]): 228.1 ± 28.3
Micro metastases # (231-BR-HER2 cells; [5]): 199.8 ± 24.1
Kp at 336 h (in vivo): 0.24 to 0.31
